Data set [1] can be described thus: Pharmaceutical equivalency: comparison of pharmacokinetic data (methyl hydrogen fumarate level). Particulars: rat, in vivo, 100 mg/kg, dosage 100 mg/kg body-wt.
Data set [2] in a line: in vivo. Particulars: rat, oral administration; for LD50: in vivo, po. The protocol: Before the clinical trial, the acute toxicity of methyl hydrogen fumarate was tested by oral administration to rats.
Acute toxicity on rats (oral administration)

For data set [3] the following is noted: high dosages; parenteral, dermal and particularly oral route; cited from earlier work.
Data set [4] relates to psoriasis. As to conditions: cited from earlier work.
The test system of data set [5] is Ehrlich ascites tumour. Particulars: mice; cited from earlier work.
Data set [6] has as its system toxic effects of Mitomycin C and Aflatoxin. As to conditions: cited from earlier work.
Data set [7] deals with microbes. Particulars: cited from earlier work.
Data set [8] relates to phosphoslipase A2. Particulars: cited from earlier work.

Counter-ions that a name gives are not always drawn.

In the case of `COC(=O)/C=C/C(=O)O.[Ca]` [Methyl hydrogen fumarate calcium salt], the Cmax (as a rule, the maximum level reached in the sampled fluid or tissue) in data set [1] (female) stood at 107 µg/mL; in data set [1] (male), 51.3 µg/mL.
As for `COC(=O)/C=C/C(=O)O` [Methyl hydrogen fumarate, methyl hydrogen fumarate], the Cmax in data set [1] (female) is 84.8 µg/mL; in data set [1] (male) it was 69.9 µg/mL. Also, the figures for the LD50 in data set [2] (female) and in data set [2] (male) were 1780 mg/kg and 2610 mg/kg, respectively. Besides, the “Lowest lethal dose in mg/kg” value was 1,470.0 mg/kg in data set [2] (female) and 2,150.0 mg/kg in data set [2] (male).
With `O=C(O)/C(O)=C(\O)C(=O)O` [dihydroxy fumaric acid], the “rate of side effects and toxicity” value in data set [3] was “unacceptable rate of side effects and high toxicity”.
On to `NC(=O)/C=C/C(N)=O` [fumaramide], for which, in data set [3], the “rate of side effects and toxicity” value was “unacceptable rate of side effects and high toxicity”.
On to `O=C(O)/C=C/C(=O)O` [fumaric acid], for which the anti-psoriatic effect entry in data set [4] is reported as “anti-psoriatic”. In data set [5], the “growth of the Ehrlich ascites tumour” value was “inhibits the growth of the Ehrlich ascites tumour in mice”. Also, the “toxic effects of Mitomycin C and Aflatoxin” value in data set [6] was “reduces the toxic effects of Mitomycin C and Aflatoxin”. Further, the antimicrobial effect result in data set [7] is recorded as “antimicrobial effect”. Also, the “stimulation of phosphoslipase A2” value in data set [8] is listed as “stimulated”.
For `N#C/C=C/C#N` [fumaronitrile], in data set [3], the “rate of side effects and toxicity” value was “unacceptable rate of side effects and high toxicity”.

The values above are taken from patent US6277882A, “Utilization of alkyl hydrogen fumarates for treating psoriasis, psoriatic arthritis, neurodermatitis and regional enteritis” (priority 1998, dated 2001).
